Consider 3 compounds from patent US10710978B2, “STK4 inhibitors for treatment of hematologic malignancies” (Dana-Farber Cancer Institute, Inc., priority 2015, dated 2020).

Where two headings read alike, the source gives them in different places. Some results are limits rather than exact numbers.

The target of one assay is AGK (Homo sapiens (Human), UniProt Q53H12). As to the kind of experiment: KiNativ assay. It is filed as binding. The note with it: H929 live cell. In short, it runs like this: (§1)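 Screening used intact H929 cells treated with each compound at 10 μM in duplicate; KiNativ labelling followed, and MS quantitation yielded IC50.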
AGK, sequence (Q53H12 whole entry): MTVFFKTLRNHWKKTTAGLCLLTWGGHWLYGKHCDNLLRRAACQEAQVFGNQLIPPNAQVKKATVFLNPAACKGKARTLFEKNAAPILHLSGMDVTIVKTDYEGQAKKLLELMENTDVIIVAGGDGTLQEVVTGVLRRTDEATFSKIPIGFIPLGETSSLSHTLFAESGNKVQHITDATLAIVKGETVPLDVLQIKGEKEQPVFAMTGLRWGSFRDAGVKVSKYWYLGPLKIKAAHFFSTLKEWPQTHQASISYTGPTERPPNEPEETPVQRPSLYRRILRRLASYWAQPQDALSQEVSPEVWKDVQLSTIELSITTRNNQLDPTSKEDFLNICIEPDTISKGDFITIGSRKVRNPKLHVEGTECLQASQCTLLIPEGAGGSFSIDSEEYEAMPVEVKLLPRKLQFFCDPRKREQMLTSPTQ
Assay [1] deals with ALK2, ALK4, ALK7, BMPR1B, TGFbR1. Put plainly: KiNativ assay. To be noted: H929 live cell; for % inhibition: 10 μM, range class. The class given is binding. The gist of the method:
as §1

The target in the next assay is ATM (Homo sapiens (Human), UniProt Q13315). Put plainly: KiNativ assay. The class given is binding. The note with it: H929 live cell. The gist of the method: as §1
In the next assay the target is CLK3 (Homo sapiens (Human), UniProt P49761). As to the kind of experiment: KiNativ assay. The note with it: H929 live cell. It is filed as binding. In short, it runs like this: (§2)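 Compounds were tested in duplicate at 10 μM in live H929 cells, and kinase engagement was profiled by KiNativ with mass spectrometry read-out to derive IC50.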
CLK3, sequence (P49761 whole entry): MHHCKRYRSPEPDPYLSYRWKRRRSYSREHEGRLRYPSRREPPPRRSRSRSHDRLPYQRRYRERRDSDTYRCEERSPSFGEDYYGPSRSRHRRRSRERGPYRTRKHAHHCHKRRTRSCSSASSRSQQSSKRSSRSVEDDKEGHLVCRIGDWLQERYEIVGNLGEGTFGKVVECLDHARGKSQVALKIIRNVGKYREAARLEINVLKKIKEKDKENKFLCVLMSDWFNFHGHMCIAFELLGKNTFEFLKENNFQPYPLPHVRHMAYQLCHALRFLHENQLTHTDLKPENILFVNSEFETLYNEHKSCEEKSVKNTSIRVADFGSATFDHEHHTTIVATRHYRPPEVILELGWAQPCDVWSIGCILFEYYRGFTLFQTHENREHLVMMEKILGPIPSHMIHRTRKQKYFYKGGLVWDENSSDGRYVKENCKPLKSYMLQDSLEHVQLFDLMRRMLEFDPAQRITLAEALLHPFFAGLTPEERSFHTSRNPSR
The target of another assay is GPRK6 (Homo sapiens (Human), UniProt P43250). Put plainly: KiNativ assay. The class given is binding. The note with it: H929 live cell. In short, it runs like this: as §2
GPRK6, sequence (P43250 whole entry): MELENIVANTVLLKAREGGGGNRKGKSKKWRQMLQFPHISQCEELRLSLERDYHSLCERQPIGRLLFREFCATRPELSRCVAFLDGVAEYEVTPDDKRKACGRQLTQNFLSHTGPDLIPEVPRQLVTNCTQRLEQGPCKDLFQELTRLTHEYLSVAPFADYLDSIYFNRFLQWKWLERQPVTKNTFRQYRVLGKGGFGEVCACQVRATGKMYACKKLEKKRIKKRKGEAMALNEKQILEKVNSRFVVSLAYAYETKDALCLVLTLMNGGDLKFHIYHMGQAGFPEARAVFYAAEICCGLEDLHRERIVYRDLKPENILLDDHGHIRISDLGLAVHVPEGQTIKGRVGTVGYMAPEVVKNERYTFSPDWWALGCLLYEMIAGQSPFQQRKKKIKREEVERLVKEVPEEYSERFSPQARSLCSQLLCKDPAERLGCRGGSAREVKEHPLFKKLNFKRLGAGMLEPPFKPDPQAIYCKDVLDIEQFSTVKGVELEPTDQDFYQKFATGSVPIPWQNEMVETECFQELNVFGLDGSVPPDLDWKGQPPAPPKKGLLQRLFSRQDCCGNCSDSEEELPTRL
In the next assay the target is LZK (Homo sapiens (Human), UniProt O43283). Put plainly: KiNativ assay. The note with it: H929 live cell. The class given is binding. In short, it runs like this:
as §1

The target in a further assay is MAP3K3 (Homo sapiens (Human), UniProt Q99759). Put plainly: KiNativ assay. It is filed as binding. The note with it: H929 live cell. The gist of the method:
as §1

The next assay has as its target MAP3K6 (Homo sapiens (Human), UniProt O95382). As to the kind of experiment: KiNativ assay. The class given is binding. To be noted: H929 live cell. In short, it runs like this: as §2
The next assay relates to MAST1, MAST2. Put plainly: KiNativ assay. The class given is binding. The note with it: H929 live cell; for % inhibition: 10 μM, range class. In short, it runs like this:
as §2

In another assay the target is PCTAIRE1 (Homo sapiens (Human), UniProt Q00536). Put plainly: KiNativ assay. The note with it: H929 live cell. The class given is binding. In short, it runs like this: as §1
PCTAIRE1, sequence (Q00536 whole entry): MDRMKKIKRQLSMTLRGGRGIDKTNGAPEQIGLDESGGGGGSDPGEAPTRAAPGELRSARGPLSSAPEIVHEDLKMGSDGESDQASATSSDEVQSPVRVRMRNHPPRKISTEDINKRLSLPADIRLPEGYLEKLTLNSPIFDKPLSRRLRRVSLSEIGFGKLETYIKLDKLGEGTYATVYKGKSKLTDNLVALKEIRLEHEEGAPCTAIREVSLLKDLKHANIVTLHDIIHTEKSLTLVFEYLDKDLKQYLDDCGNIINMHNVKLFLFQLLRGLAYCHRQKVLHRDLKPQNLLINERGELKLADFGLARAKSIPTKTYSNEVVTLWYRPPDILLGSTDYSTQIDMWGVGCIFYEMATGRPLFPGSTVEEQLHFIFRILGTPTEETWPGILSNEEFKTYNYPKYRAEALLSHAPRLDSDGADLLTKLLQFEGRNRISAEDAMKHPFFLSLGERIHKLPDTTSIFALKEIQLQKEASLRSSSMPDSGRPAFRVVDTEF
Another assay has as its system PCTAIRE1, PCTAIRE3. Put plainly: KiNativ assay. The class given is binding. To be noted: H929 live cell; for % inhibition: 10 μM, range class. The gist of the method: as §1
A further assay concerns PCTAIRE2, PCTAIRE3. As to the kind of experiment: KiNativ assay. To be noted: H929 live cell; for % inhibition: 10 μM, range class. The class given is binding. In short, it runs like this: as §1
The target of another assay is TAK1 (Homo sapiens (Human), UniProt O43318). Put plainly: KiNativ assay. It is filed as binding. The note with it: H929 live cell. The gist of the method:
as §2

The test system of a further assay is p-MOB1. As to the kind of experiment: Western blotting. The class given is cell-based. The note with it: MM.1S cells, 1 μM and 10 μM, 6 hours. The source says: MM.1S, KMS20 and H929 cells are counted, diluted and plated. Cells are then […] with DMSO or different concentration of a compound of the present application for 6 hrs, 24 hrs or 48 hrs. MM cells are then collected and centrifuged at RT and the pellets are re-suspended in lysis buffer. Cell lysates are subjected to sodium dodecyl sulfate-polyacrylamide gel electrophoresis SDS-PAGE, transferred to nitrocellulose membranes, and immunoblotted with different antibodies.
MM.1S, KMS20 and H929 cells were counted, diluted and plated in six-well plates to a final concentration of 500,000 cells/well. Cells were then […] with DMSO or different concentration of a compound of the present application for 6 hrs, 24 hrs or 48 hrs. MM cells were then collected and centrifuged for 5 min, 1300 rpm at RT. The pellets were re-suspended in lysis buffer Laemli 1× (Laemli 5×: SDS 10%, DTT 500 mM, Tris-HCl pH6.8 0.4M, BromoFenol Blue, Glycerol 50%). Cell lysates were subjected to sodium dodecyl sulfate-polyacrylamide gel electrophoresis SDS-PAGE, transferred to nitrocellulose membranes, and immunoblotted with different antibodies: YAP1 (#4912), p-YAP1 (S127) (#13008), LATS1 (#9153), p-LATS1 (Thr1079) (#8654), MOB1 (#3863), p-MOB1 (Thr12) (#8843), p-MST1/p-MST2 (Thr183/Thr180) (#3681), p21 (#2947), PARP (#9532), ERK, STAT, and GAPDH (#5174) from Cell Signaling, Beverly, Mass., United States; STK4 (ab57836) (from Abcam, Cambridge, Mass., United States); PUMA (sc-28226), BAX (sc-20067), from Santa Cruz, Dallas, Tex., United States; β-actin from Sigma-Aldrich (St. Louis, Mo., United States). All antibodies were diluted 1:500, except for β-actin antibody (1:50,000 dilution). In FIG. 8, H929 cells were treated with Compound I-9 or DMSO at 1 μM concentration for 24 hours. Lysates were then obtained and immunoblot was performed using antibodies against PARP, YAP1, PUMA, BAX. p21, and GAPDH.
In FIGS. 26A-26J, MM.1S cells were treated with Compound I-6, Compound I-31, Compound I-30, Compound I-22, Compound I-27, Compound I-1, Compound I-23, Compound I-13, Compound I-28, Compound I-9, or DMSO at 1 μM and 10 μM concentrations for 6 hours. Lysates were then obtained and immunoblot was performed using antibodies against MOB1 and p-MOB1. As shown from FIGS. 26A-26J, Compound I-22, Compound I-27, Compound I-1, Compound I-23, Compound I-13, Compound I-28, and Compound I-9 reduced PMOB1 levels at different concentrations.
Background: In western blotting, separated proteins are transferred to a membrane and probed.

[2] abbreviates: range class, read-out: % inhibition.

TAK1, sequence (O43318 whole entry): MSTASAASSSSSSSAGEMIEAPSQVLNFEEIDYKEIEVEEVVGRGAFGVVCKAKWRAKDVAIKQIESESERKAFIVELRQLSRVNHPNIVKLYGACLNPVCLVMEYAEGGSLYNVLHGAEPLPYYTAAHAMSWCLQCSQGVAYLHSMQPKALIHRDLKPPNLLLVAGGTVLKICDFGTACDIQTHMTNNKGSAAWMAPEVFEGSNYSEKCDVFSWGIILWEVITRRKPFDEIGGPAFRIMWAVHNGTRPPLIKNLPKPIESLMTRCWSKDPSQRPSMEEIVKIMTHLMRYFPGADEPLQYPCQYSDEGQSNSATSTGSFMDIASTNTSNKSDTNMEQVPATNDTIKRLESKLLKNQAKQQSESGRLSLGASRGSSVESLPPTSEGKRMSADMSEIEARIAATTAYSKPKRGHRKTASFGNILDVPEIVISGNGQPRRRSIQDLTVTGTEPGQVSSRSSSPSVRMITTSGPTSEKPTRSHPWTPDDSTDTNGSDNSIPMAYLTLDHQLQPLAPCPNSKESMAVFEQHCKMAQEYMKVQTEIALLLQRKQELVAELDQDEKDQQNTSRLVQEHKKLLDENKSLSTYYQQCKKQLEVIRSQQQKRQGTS
LZK, sequence (O43283 whole entry): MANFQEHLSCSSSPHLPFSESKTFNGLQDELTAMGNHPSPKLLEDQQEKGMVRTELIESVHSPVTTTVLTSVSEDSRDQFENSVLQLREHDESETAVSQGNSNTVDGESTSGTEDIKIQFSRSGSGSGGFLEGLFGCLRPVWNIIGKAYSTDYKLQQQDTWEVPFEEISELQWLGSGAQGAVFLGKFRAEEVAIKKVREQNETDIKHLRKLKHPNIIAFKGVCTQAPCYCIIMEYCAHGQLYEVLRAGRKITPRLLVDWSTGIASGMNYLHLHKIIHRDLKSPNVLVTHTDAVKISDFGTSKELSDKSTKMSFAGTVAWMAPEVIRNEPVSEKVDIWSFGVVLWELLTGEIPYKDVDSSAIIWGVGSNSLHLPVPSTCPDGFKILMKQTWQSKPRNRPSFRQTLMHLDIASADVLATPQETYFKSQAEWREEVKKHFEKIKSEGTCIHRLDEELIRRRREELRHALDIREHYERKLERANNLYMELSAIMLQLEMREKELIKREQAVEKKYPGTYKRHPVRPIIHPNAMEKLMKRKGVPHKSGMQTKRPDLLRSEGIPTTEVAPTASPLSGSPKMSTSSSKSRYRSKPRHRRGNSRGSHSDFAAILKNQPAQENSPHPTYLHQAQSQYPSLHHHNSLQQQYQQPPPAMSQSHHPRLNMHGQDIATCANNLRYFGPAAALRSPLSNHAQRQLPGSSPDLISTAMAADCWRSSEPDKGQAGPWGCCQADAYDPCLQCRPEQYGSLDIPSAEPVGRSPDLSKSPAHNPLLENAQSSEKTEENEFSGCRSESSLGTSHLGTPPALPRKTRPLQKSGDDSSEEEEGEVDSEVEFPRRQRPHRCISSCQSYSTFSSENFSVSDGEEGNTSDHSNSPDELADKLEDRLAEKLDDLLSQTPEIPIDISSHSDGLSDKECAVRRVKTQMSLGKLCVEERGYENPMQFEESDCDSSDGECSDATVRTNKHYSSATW
MAP3K3, sequence (Q99759 whole entry): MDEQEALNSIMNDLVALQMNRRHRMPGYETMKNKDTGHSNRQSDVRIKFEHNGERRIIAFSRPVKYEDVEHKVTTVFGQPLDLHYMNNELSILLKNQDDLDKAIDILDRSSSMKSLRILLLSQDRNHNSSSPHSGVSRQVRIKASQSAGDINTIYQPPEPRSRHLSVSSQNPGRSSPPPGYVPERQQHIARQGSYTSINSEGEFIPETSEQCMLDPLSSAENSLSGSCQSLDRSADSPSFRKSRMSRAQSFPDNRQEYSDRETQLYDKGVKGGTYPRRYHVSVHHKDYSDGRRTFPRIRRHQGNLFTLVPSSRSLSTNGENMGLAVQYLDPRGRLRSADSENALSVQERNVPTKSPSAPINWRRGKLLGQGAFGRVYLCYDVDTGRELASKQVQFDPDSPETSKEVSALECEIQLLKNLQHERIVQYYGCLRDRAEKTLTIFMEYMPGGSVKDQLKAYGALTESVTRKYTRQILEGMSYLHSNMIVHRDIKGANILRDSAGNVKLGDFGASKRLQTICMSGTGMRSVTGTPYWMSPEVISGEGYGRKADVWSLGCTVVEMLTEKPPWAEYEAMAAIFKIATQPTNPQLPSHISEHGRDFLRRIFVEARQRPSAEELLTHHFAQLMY

The term inhibition denotes the change of the read-out against control, counted positive when it falls. The % inhibition is the relative decrease from the control value, in per cent. The low end stands for little suppression, the high end for strong suppression. For `Nc1ncc(-c2ccc(NS(=O)(=O)C3CC3)cc2OC2CCCCC2)cc1-c1ccc2c(c1)CCNC2=O` [Compound I-65, N-(4-(6-amino-5-(1-oxo-1,2,3,4-tetrahydroisoquinolin-6-yl)pyridin-3-yl)-3-(cyclohexyloxy)phenyl) cyclopropanesulfonamide], the inhibition at 10 µM was 0% on AGK (setting [2]); -21.2% on AGK (read-out: inhibition (10 μM)); 35 to 40% on ATM (setting [2]); 48% at ATM (read-out: inhibition (10 μM)); 35 to 40% at CLK3 (setting [2]); 40% on CLK3 (read-out: inhibition (10 μM)). Further, the inhibition at 10 µM is 0% at GPRK6 (setting [2]); 23.1% at GPRK6 (read-out: inhibition (10 μM)); 35 to 40% at LZK (setting [2]); 43.1% on LZK (read-out: inhibition (10 μM)); 0% on MAP3K3 (setting [2]); -28.3% at MAP3K3 (read-out: inhibition (10 μM)). Further, the inhibition at 10 µM at MAP3K6 (setting [2]) is 0%; on MAP3K6 (read-out: inhibition (10 μM)) it was -7.2%; at PCTAIRE1 (setting [2]) it was 0%; on PCTAIRE1 (read-out: inhibition (10 μM)), 9%; on TAK1 (setting [2]), 35 to 40%; at TAK1 (read-out: inhibition (10 μM)), 35%. Further, the “% inhibition” value in assay [1] was above 90%; with MAST1, MAST2, 0.0%; in the assay with PCTAIRE1, PCTAIRE3, 0.0%; in the assay on PCTAIRE2, PCTAIRE3, 0.0%. Moreover, the “inhibition (10 μM)” value in assay [1] was 91.0%; with MAST1, MAST2, 3.0%; with PCTAIRE1, PCTAIRE3, 2.3%; with PCTAIRE2, PCTAIRE3, 20.3%.

In the case of `COc1cc(NS(=O)(=O)C2CC2)ccc1-c1cnc(N)c(-c2ccc3c(c2)CCNC3=O)c1` [Compound I-50, N-(4-(6-amino-5-(1-oxo-1,2,3,4-tetrahydroisoquinolin-6-yl)pyridin-3-yl)-3-methoxyphenyl) cyclopropanesulfonamide], the inhibition at 10 µM on AGK (setting [2]) is 0%; on AGK (read-out: inhibition (10 μM)) it was 11.5%; at ATM (setting [2]), 0%; on ATM (read-out: inhibition (10 μM)), 34.6%; on CLK3 (setting [2]), 0%; on CLK3 (read-out: inhibition (10 μM)) it was 1.5%. The inhibition at 10 µM was 0% at GPRK6 (setting [2]); -40.5% at GPRK6 (read-out: inhibition (10 μM)); 0% on LZK (setting [2]); 1.3% at LZK (read-out: inhibition (10 μM)); 0% at MAP3K3 (setting [2]); -5.7% on MAP3K3 (read-out: inhibition (10 μM)). Also, the inhibition at 10 µM at MAP3K6 (setting [2]) was 0%; on MAP3K6 (read-out: inhibition (10 μM)), -5.4%; at PCTAIRE1 (setting [2]), 0%; at PCTAIRE1 (read-out: inhibition (10 μM)), -15.6%; at TAK1 (setting [2]) it was 35 to 40%; on TAK1 (read-out: inhibition (10 μM)), 39.1%. The “% inhibition” value in assay [1] is on record as 75-90%; in the assay on MAST1, MAST2, 0.0%; in the assay on PCTAIRE1, PCTAIRE3, 0.0%; with PCTAIRE2, PCTAIRE3, 0.0%. The “inhibition (10 μM)” value in assay [1] is 84.0%; in the assay on MAST1, MAST2, 2.6%; with PCTAIRE1, PCTAIRE3 it was −3.5%; in the assay on PCTAIRE2, PCTAIRE3, −8.9%.

Turning to `Nc1ncc(-c2cc([N+](=O)[O-])ccc2F)cc1-c1ccc2c(c1)CCNC2=O` [Compound I-1, 6-(2-amino-5-(2-fluoro-5-nitrophenyl)pyridin-3-yl)-3,4-dihydroisoquinolin-1(2H)-one], in the assay with p-MOB1, the PMOB1 levels result is “reduced”.
